In patent US9023789B2, “Amylin analogs and pharmaceutical compositions thereof” (Novo Nordisk A/S, priority 2012, dated 2015):
Numbered stars: 1 amine (or outer) side, 2 acyl side, 3 side chain; on linkers, the order of the positions; unused ones are H or OH. Bridge positions count the residues as written; N and C are the ends. Side chains are listed from the residue outwards. Peptide text beside a SMILES is read from it. * marks the point of attachment. C20 diacid = O=C(O)CCCCCCCCCCCCCCCCCCC(=O)*; γGlu = O=C(O)[C@H](CCC(=O)[*:2])N[*:1]; AEEA = NCCOCCOCC(=O)O

Key:
[1] = system: Sprague Dawley (SD) rats; experiment: ASSAY (I) efficacy testing on appetite (food intake) using an ad libitum fed rat model; format: in vivo; settings: rat
Outline: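 Ad libitum fed SD rats (200–250 g) were housed singly on a reversed light/dark cycle and given one 0.01–3 mg/kg dose ip, po or sc just before lights-off, with 5–8 per dose group plus vehicle controls. Food intake was recorded hourly for 7 h, then at 24 h and sometimes 48 h; Grubbs outliers were excluded.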

[2] = target: T1, rat calcitonin receptor (Rattus norvegicus, UniProt P32214); experiment: ASSAY (VIII) binding to the rat calcitonin receptor; settings: Table 7, read-out: rCTR bind IC50
T1 construct: expressed in transfected cells; host or cells: BHK tk'ts 13 (transient, FuGENE 6), membranes
T1 sequence (P32214 25-479 isoform P32214-2 limits assumed): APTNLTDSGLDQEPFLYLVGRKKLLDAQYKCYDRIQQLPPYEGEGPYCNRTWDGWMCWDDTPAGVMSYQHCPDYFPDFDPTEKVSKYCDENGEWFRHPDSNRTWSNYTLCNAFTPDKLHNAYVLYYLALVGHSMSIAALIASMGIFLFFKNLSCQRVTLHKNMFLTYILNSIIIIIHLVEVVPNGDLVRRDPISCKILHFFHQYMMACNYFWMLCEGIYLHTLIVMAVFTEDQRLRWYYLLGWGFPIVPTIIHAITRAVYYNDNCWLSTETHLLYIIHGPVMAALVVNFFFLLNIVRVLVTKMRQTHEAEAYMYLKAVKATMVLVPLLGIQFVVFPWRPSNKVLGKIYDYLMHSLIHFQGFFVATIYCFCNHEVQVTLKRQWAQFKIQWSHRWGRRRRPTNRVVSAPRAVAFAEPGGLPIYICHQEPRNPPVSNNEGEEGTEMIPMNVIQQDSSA
Outline: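 Rat calcitonin receptor is expressed transiently in BHK tk′ts 13 cells cultured in DMEM with 10% FBS. Roughly two days (approximately 48 hours) post-transfection, cells are harvested for membrane preparation.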

[3] = target: T2, rat amylin receptor (rat calcitonin receptor + rat RAMP 3) (Rattus norvegicus, UniProt P32214+Q9JJ73); experiment: ASSAY (VI) binding to the rat amylin receptor; settings: for IC50: binding to rat amylin receptor, read-out: rAmylin-R bind IC50
T2 construct: expressed in transfected cells; host or cells: BHK tk'ts 13 (transient, FuGENE 6), membranes
T2 sequence (P32214 25-479 isoform P32214-2 limits assumed): T1 sequence (P32214 25-479 isoform P32214-2 limits assumed)
T2 sequence (Q9JJ73 23-147 partner): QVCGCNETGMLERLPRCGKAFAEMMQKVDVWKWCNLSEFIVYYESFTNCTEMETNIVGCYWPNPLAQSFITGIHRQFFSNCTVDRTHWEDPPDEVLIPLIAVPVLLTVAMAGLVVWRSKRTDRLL
Outline: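 Binding to the rat amylin receptor was determined with membrane preparations. The receptor was expressed by transiently transfecting BHK tk′ts 13 cells with rat calcitonin receptor, using FuGENE® 6 (Roche) according to the manufacturer's recommendations. Roughly 48 hours later the cells were harvested and their membranes isolated.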

[4] = Table 7, rat binding selectivity, rCTR IC50 / rAmylin-R IC50
[5] = Table 7a (preferred compounds), rat binding selectivity, rCTR IC50 / rAmylin-R IC50
[6] = ratio of rCTR bind IC50 to rAmylin-R bind IC50

SMILES	IC50 [2]	IC50 ([3]; Table 7)	Ratio rCT/rAmylin binding [3, 4]	Ratio rCT/rAmylin binding [3, 5]	Ratio rCT/rAmylin binding [3, 6]	Food intake reduction 0-24 h 30 nmol/kg (%) ([1]; 0-24 h)	Food intake reduction 24-48 h 30 nmol/kg (%) ([1]; 24-48 h)	Food intake reduction 0-24 h 3 nmol/kg (%) ([1]; 3 nmol/kg, 0-24 h)	Food intake reduction 24-48 h 3 nmol/kg (%) ([1]; 3 nmol/kg, 24-48 h)
CC[C@H](C)[C@H](NC(=O)[C@H](C)NC(=O)CNC(=O)[C@H](Cc1ccccc1)NC(=O)[C@H](CC(N)=O)NC(=O)[C@@H]1CCCN1C(=O)[C@H](CO)NC(=O)[C@H](CO)NC(=O)[C@H](Cc1c[nH]cn1)NC(=O)[C@H](CCCNC(=N)N)NC(=O)[C@H](CC(C)C)NC(=O)[C@H](Cc1ccccc1)NC(=O)[C@H](CC(N)=O)NC(=O)[C@H](C)NC(=O)[C@H](CC(C)C)NC(=O)[C@H](CCCNC(=N)N)NC(=O)[C@H](CCC(N)=O)NC(=O)[C@@H](NC(=O)[C@H](C)NC(=O)[C@@H]1CSSC[C@H](NC(=O)[C@@H](N)CCCCNC(=O)COCCOCCNC(=O)COCCOCCNC(=O)CC[C@H](NC(=O)CCCCCCCCCCCCCCCCCCC(=O)O)C(=O)O)C(=O)N[C@@H](CC(N)=O)C(=O)N[C@@H]([C@@H](C)O)C(=O)N[C@@H](C)C(=O)N[C@@H]([C@@H](C)O)C(=O)N1)[C@@H](C)O)C(=O)N1CCC[C@H]1C(=O)N[C@@H](CO)C(=O)N[C@@H](CO)C(=O)N[C@H](C(=O)N[C@@H](CC(N)=O)C(=O)N[C@H](C(=O)NCC(=O)N[C@@H](CCCNC(=N)N)C(=O)N[C@@H](CC(N)=O)C(=O)N[C@H](C(=O)N[C@@H](Cc1ccc(O)cc1)C(N)=O)[C@@H](C)O)C(C)C)[C@@H](C)O [Example 95] (H-K([AEEA-AEEA-γGlu-C20 diacid])CNTATCATQRLANFLRHSSPNFGAIPSSTNVGRNTY-NH2; disulfide 2-7 (inferred); N-terminus assumed)	389 nM	5.45 nM	71.3	71.3	71.3	22%	0%	–	–
CC[C@H](C)[C@H](NC(=O)[C@H](C)NC(=O)CNC(=O)[C@H](Cc1ccccc1)NC(=O)[C@H](CC(N)=O)NC(=O)[C@@H]1CCCN1C(=O)[C@H](CO)NC(=O)[C@H](CO)NC(=O)[C@H](Cc1c[nH]cn1)NC(=O)[C@H](CCCNC(=N)N)NC(=O)[C@H](CC(C)C)NC(=O)[C@H](Cc1ccccc1)NC(=O)[C@H](CCC(=O)O)NC(=O)[C@H](C)NC(=O)[C@H](CC(C)C)NC(=O)[C@H](CCCNC(=N)N)NC(=O)[C@H](CCC(N)=O)NC(=O)[C@@H](NC(=O)[C@H](C)NC(=O)[C@@H]1CSSC[C@H](NC(=O)[C@@H](N)CCCCNC(=O)CC[C@H](NC(=O)CC[C@H](NC(=O)CCCCCCCCCCCCCCCCCCC(=O)O)C(=O)O)C(=O)O)C(=O)N[C@@H](CC(N)=O)C(=O)N[C@@H]([C@@H](C)O)C(=O)N[C@@H](C)C(=O)N[C@@H]([C@@H](C)O)C(=O)N1)[C@@H](C)O)C(=O)N1CCC[C@H]1C(=O)N[C@@H](CO)C(=O)N[C@@H](CO)C(=O)N[C@H](C(=O)N[C@@H](CC(N)=O)C(=O)N[C@H](C(=O)NCC(=O)N1CCC[C@H]1C(=O)N[C@@H](CCC(=O)O)C(=O)N[C@H](C(=O)N[C@@H](Cc1ccc(O)cc1)C(N)=O)[C@@H](C)O)C(C)C)[C@@H](C)O [Example 106] (H-K([γGlu-γGlu-C20 diacid])CNTATCATQRLAEFLRHSSPNFGAIPSSTNVGPETY-NH2; disulfide 2-7; N-terminus assumed)	16.1 nM	0.182 nM	88.5	88.5	88.5	63%	69%	–	–
CC[C@H](C)[C@H](NC(=O)[C@H](C)NC(=O)CNC(=O)[C@H](Cc1ccccc1)NC(=O)[C@H](CC(N)=O)NC(=O)[C@@H]1CCCN1C(=O)[C@H](CO)NC(=O)[C@H](CO)NC(=O)[C@H](Cc1c[nH]cn1)NC(=O)[C@H](CCCNC(=N)N)NC(=O)[C@H](CC(C)C)NC(=O)[C@H](Cc1ccccc1)NC(=O)[C@H](CCC(=O)O)NC(=O)[C@H](C)NC(=O)[C@H](CC(C)C)NC(=O)[C@H](CCCNC(=N)N)NC(=O)[C@H](CCC(N)=O)NC(=O)[C@@H](NC(=O)[C@H](C)NC(=O)[C@@H]1CSSC[C@H](NC(=O)[C@@H](N)CCCCNC(=O)CC[C@H](NC(=O)CCCCCCCCCCCCCCCCCCC(=O)O)C(=O)O)C(=O)N[C@@H](CC(N)=O)C(=O)N[C@@H]([C@@H](C)O)C(=O)N[C@@H](C)C(=O)N[C@@H]([C@@H](C)O)C(=O)N1)[C@@H](C)O)C(=O)N1CCC[C@H]1C(=O)N[C@@H](CO)C(=O)N[C@@H](CO)C(=O)N[C@H](C(=O)N[C@@H](CC(N)=O)C(=O)N[C@H](C(=O)NCC(=O)N1CCC[C@H]1C(=O)N[C@@H](CCC(=O)O)C(=O)N[C@H](C(=O)N[C@@H](Cc1ccc(O)cc1)C(N)=O)[C@@H](C)O)C(C)C)[C@@H](C)O [Example 109] (H-K([γGlu-C20 diacid])CNTATCATQRLAEFLRHSSPNFGAIPSSTNVGPETY-NH2; disulfide 2-7 (inferred); N-terminus assumed)	10.4 nM	0.164 nM	63.2	63.2	63.2	89%	91%	57%	50%

Continued by falling IC50 [2], values first:

IC50 [2]	IC50 ([3]; Table 7)	Ratio rCT/rAmylin binding [3, 4]	Ratio rCT/rAmylin binding [3, 5]	Ratio rCT/rAmylin binding [3, 6]	SMILES	Food intake reduction 0-24 h 30 nmol/kg (%) ([1]; 0-24 h)	Food intake reduction 24-48 h 30 nmol/kg (%) ([1]; 24-48 h)	Food intake reduction 0-24 h 3 nmol/kg (%) ([1]; 3 nmol/kg, 0-24 h)	Food intake reduction 24-48 h 3 nmol/kg (%) ([1]; 3 nmol/kg, 24-48 h)
498 nM	3.14 nM	158.8	158.8	158.8	CC[C@H](C)[C@H](NC(=O)[C@H](C)NC(=O)CNC(=O)[C@H](Cc1ccccc1)NC(=O)[C@H](CC(N)=O)NC(=O)[C@@H]1CCCN1C(=O)[C@H](CO)NC(=O)[C@H](CO)NC(=O)[C@H](Cc1c[nH]cn1)NC(=O)[C@H](CCCNC(=N)N)NC(=O)[C@H](CC(C)C)NC(=O)[C@H](Cc1ccccc1)NC(=O)[C@H](CCC(=O)O)NC(=O)[C@H](C)NC(=O)[C@H](CC(C)C)NC(=O)[C@H](CCCNC(=N)N)NC(=O)[C@H](CCC(N)=O)NC(=O)[C@@H](NC(=O)[C@H](C)NC(=O)[C@@H]1CSSC[C@H](NC(=O)[C@@H](N)CCCCNC(=O)CC[C@H](NC(=O)CC[C@H](NC(=O)CCCCCCCCCCCCCCCCCCC(=O)O)C(=O)O)C(=O)O)C(=O)N[C@@H](CC(N)=O)C(=O)N[C@@H]([C@@H](C)O)C(=O)N[C@@H](C)C(=O)N[C@@H]([C@@H](C)O)C(=O)N1)[C@@H](C)O)C(=O)N1CCC[C@H]1C(=O)N[C@@H](CO)C(=O)N[C@@H](CO)C(=O)N[C@H](C(=O)N[C@@H](CC(N)=O)C(=O)N[C@H](C(=O)NCC(=O)N[C@@H](Cc1c[nH]cn1)C(=O)N[C@@H](CCC(=O)O)C(=O)N[C@H](C(=O)N[C@@H](Cc1ccc(O)cc1)C(N)=O)[C@@H](C)O)C(C)C)[C@@H](C)O [Example 104] (H-K([γGlu-γGlu-C20 diacid])CNTATCATQRLAEFLRHSSPNFGAIPSSTNVGHETY-NH2; disulfide 2-7; N-terminus assumed)	31%	28%	–	–
86.1 nM	1.06 nM	81.1	81.1	81.1	CC[C@H](C)[C@H](NC(=O)[C@H](C)NC(=O)CNC(=O)[C@H](Cc1ccccc1)NC(=O)[C@H](CC(N)=O)NC(=O)[C@@H]1CCCN1C(=O)[C@H](CO)NC(=O)[C@H](CO)NC(=O)[C@H](Cc1c[nH]cn1)NC(=O)[C@H](CCCNC(=N)N)NC(=O)[C@H](CC(C)C)NC(=O)[C@H](Cc1ccccc1)NC(=O)[C@H](CCC(=O)O)NC(=O)[C@H](C)NC(=O)[C@H](CC(C)C)NC(=O)[C@H](CCCNC(=N)N)NC(=O)[C@H](CCC(N)=O)NC(=O)[C@@H](NC(=O)[C@H](C)NC(=O)[C@@H]1CSSC[C@H](NC(=O)[C@@H](N)CCCCNC(=O)CC[C@H](NC(=O)CCCCCCCCCCCCCCCCCCC(=O)O)C(=O)O)C(=O)N[C@@H](CC(N)=O)C(=O)N[C@@H]([C@@H](C)O)C(=O)N[C@@H](C)C(=O)N[C@@H]([C@@H](C)O)C(=O)N1)[C@@H](C)O)C(=O)N1CCC[C@H]1C(=O)N[C@@H](CO)C(=O)N[C@@H](CO)C(=O)N[C@H](C(=O)N[C@@H](CC(N)=O)C(=O)N[C@H](C(=O)NCC(=O)N[C@@H](CCCNC(=N)N)C(=O)N[C@@H](CCC(=O)O)C(=O)N[C@H](C(=O)N[C@@H](Cc1ccc(O)cc1)C(N)=O)[C@@H](C)O)C(C)C)[C@@H](C)O [Example 108] (H-K([γGlu-C20 diacid])CNTATCATQRLAEFLRHSSPNFGAIPSSTNVGRETY-NH2; disulfide 2-7; N-terminus assumed)	29%	0%	–	–
